Data reported in patent publication US10168342B2, “Lipid probes and uses thereof” (THE SCRIPPS RESEARCH INSTITUTE, priority 2015, dated 2019).

Tests used:
Assay in all cases: In situ competitive SILAC profiling with A-DA probe in (PMA-stimulated) A549 cells
Settings in all cases: A549 cells, A-DA probe
[1] = target: T1, A-DA lipid probe targets in A549 cells (Homo sapiens, UniProt P50402)
T1 sequence (P50402 1-254): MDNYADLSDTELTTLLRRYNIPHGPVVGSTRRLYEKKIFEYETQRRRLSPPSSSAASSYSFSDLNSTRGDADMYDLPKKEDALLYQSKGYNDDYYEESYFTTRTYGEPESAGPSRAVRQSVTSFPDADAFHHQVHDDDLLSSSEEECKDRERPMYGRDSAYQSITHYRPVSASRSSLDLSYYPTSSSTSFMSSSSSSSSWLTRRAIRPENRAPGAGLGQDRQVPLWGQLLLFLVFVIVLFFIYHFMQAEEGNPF

[2] = target: T2, A-DA lipid probe targets in A549 cells (Homo sapiens, UniProt Q96G23)
T2 sequence (Q96G23 1-380): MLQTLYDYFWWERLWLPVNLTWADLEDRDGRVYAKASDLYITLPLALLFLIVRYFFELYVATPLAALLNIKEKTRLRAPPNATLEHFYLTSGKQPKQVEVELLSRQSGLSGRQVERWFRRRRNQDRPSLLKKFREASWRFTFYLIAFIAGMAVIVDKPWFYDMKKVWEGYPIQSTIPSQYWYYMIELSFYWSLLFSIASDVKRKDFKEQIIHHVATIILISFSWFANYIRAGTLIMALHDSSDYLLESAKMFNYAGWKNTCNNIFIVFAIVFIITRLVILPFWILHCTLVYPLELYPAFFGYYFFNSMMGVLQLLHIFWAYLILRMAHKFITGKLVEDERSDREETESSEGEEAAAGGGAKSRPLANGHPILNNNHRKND

[3] = target: T3, A-DA lipid probe targets in A549 cells (Homo sapiens, UniProt Q99536)
T3 sequence (Q99536 1-393): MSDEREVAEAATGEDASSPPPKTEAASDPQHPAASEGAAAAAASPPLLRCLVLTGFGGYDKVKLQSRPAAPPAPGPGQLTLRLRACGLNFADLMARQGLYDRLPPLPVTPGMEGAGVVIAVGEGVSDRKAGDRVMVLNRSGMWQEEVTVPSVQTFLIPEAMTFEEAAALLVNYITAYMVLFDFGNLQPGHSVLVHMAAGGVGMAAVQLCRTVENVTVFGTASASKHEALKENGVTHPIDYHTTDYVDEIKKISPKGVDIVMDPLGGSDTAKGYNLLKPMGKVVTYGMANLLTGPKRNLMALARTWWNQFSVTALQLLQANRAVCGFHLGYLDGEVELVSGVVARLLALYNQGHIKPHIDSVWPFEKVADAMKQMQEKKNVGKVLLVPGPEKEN

[4] = target: T4, A-DA lipid probe targets in A549 cells (Homo sapiens, UniProt Q96KC8)
T4 sequence (Q96KC8 48-554): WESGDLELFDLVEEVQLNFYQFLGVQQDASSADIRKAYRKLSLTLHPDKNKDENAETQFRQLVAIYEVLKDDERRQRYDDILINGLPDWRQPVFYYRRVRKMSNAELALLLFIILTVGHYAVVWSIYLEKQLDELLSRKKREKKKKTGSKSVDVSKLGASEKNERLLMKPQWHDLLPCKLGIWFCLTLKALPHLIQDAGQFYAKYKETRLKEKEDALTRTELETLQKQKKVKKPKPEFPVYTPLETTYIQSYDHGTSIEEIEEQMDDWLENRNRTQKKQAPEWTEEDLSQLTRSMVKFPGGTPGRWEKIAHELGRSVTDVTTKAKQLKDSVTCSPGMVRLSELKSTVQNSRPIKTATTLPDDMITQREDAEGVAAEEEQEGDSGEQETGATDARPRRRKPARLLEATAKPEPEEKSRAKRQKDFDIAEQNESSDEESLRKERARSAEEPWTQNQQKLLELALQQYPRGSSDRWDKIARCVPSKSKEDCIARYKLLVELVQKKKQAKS

[5] = target: T5, A-DA lipid probe targets in A549 cells (Homo sapiens, UniProt P67812)
T5 sequence (P67812 1-179): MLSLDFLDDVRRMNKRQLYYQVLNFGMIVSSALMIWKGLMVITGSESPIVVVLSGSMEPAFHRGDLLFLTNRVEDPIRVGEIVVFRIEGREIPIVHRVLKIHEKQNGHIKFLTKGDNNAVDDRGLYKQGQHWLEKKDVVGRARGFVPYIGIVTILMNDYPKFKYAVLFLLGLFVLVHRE

[6] = target: A-DA lipid probe targets in A549 cells (Homo sapiens, UniProt Q9H6K4)
A-DA lipid probe targets in A549 cells (Homo sapiens, UniProt Q9H6K4), sequence (Q9H6K4 whole entry): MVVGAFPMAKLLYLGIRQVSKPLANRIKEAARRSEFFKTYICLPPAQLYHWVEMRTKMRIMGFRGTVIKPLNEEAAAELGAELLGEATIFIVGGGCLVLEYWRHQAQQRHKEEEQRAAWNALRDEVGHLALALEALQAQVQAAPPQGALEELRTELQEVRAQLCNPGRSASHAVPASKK

[7] = target: T6, A-DA lipid probe targets in A549 cells (Homo sapiens, UniProt Q8IZV5)
T6 sequence (Q8IZV5 1-341): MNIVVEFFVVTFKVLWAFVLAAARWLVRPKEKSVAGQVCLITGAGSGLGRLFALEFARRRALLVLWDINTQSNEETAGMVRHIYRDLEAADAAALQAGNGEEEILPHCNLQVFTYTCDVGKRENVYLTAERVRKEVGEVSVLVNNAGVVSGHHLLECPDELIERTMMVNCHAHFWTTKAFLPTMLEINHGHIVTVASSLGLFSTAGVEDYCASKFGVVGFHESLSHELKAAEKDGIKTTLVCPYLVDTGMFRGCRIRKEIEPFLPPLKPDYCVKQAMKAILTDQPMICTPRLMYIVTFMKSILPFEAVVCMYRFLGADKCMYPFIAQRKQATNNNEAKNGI

SMILES | SILAC ratio, EMD (O08579) ([1]; competitor 25 μM) | SILAC ratio, CERS2 (Q924Z4) ([2]; competitor 25 μM) | SILAC ratio, VAT1 (Q99536) ([3]; competitor 25 μM) | SILAC ratio, DNAJC1 (Q96KC8) ([4]; competitor 25 μM) | SILAC ratio, SEC11A (P67812) ([5]; competitor 25 μM) | SILAC ratio, OPA3 (Q505D7) ([6]; competitor 25 μM) | SILAC ratio, RDH10 (Q8IZV5) ([7]; competitor 25 μM) | SILAC ratio, EMD (O08579) ([1]; competitor 5 μM) | SILAC ratio, EMD (O08579) ([1]; competitor 50 μM) | SILAC ratio, CERS2 (Q924Z4) ([2]; competitor 5 μM) | SILAC ratio, CERS2 (Q924Z4) ([2]; competitor 50 μM) | SILAC ratio, VAT1 (Q99536) ([3]; competitor 5 μM) | SILAC ratio, VAT1 (Q99536) ([3]; competitor 50 μM) | SILAC ratio, DNAJC1 (Q96KC8) ([4]; competitor 5 μM) | SILAC ratio, DNAJC1 (Q96KC8) ([4]; competitor 50 μM) | SILAC ratio, SEC11A (P67812) ([5]; competitor 5 μM) | SILAC ratio, SEC11A (P67812) ([5]; competitor 50 μM) | SILAC ratio, OPA3 (Q505D7) ([6]; competitor 5 μM) | SILAC ratio, RDH10 (Q8IZV5) ([7]; competitor 5 μM) | SILAC ratio, RDH10 (Q8IZV5) ([7]; competitor 50 μM)
O=C(/C=C/c1cccnc1)NCCCCC1CCN(C(=O)c2ccccc2)CC1 [FK-866, reference compound] | 1.3 | 1.4 | 4.0 | 1.3 | 1.2 | 1.3 | 3.1 |  |  |  |  |  |  |  |  |  |  |  |  | 
C=CCN(C)CCCCCCOc1ccc(C(=O)c2ccc(Br)cc2)c(F)c1 [Ro488071] |  |  |  |  |  |  |  | 0.6 | 0.8 | 1.5 | 2.5 | 1.4 | 2.5 | 1.6 | 3.9 | 1.5 | 3.3 | 1.8 | 1.9 | 2.8
